Data from PMC10005185, “Structure-guided engineering of a receptor-agonist pair for inducible activation of the ABA adaptive response to drought” (Science Advances, 2023).

Experiments:
[1] = biological target: T1, ABI1 with AtPYR1 (Arabidopsis thaliana, UniProt O49686); test: PP2C inhibition assay, ABI1 with AtPYR1; format: biochemical; settings: 1 µM phosphatase:2 µM receptor; read-out: IC50 of ABI1 with AtPYR1
T1 construct: His; made in house
Description: His-tagged receptors and phosphatases were purified using nickel–nitrilotriacetic acid (Ni-NTA) affinity chromatography. Protein integrity was analyzed by SDS–polyacrylamide gel electrophoresis, followed by InstantBlue staining. Phosphatase activity was measured using p-Nitrophenyl Phosphate (pNPP) (25 mM) as substrate, 10 mM MnCl2,1 μM PP2C, and 2 μM of the indicated receptors. Proteins were incubated with the ligands for 10 min at room temperature. pNPP was then added to start the reactions, and the absorbance at 405 nm was monitored for 20 min in a ViktorX5 plate reader. Assays were repeated twice. For dose-response experiments, IC50 values were obtained with GraphPad Prism 9 using a nonlinear regression curve fit. Each ligand concentration was tested in triplicate. Phosphatase activity of ABI1 was measured using RRA(phosphoT)VA peptide as a substrate, as described ([27]). […]
(D) Dose response analysis of iSB09 or ABA-dependent inhibition of ABI1 (blue and black lines, respectively) in presence of either AtPYL1 or AtPYR1. Values (average of duplicates) show PP2C activity after incubation with the indicated concentration of ligand and receptor at 1:2 ratio (1 µM phosphatase:2 µM receptor). […]
whereas with AtPYR1 was 200 nM and 213 nM, for ABA and iSB09, respectively. Ligands were assayed

[2] = test system: Arabidopsis thaliana plants; test: IR thermography of leaf temperature, arabidopsis; format: in vivo; settings: transgenic CsPYL1^5m lines and Col-0, 50 μM, 24 hours after spraying
Description: A. thaliana plants were grown in a controlled environment growth chamber at 21°/19°C under 8-hour light/16-hour dark photoperiod at 100 μE m^−2 s^−1. IR thermography images of rosette leaves were acquired with a thermal camera FLIR E95 equipped with a 42° lens, 24 hours after spraying 6-week-old plants with 10 mM MES (pH 5.7) + 0.02% Silwet L-77 plus 50 μM ligand or 0.1% DMSO as a control. Images were processed and quantified with the FLIR tools software. The average temperature of 15 different sections taken from four to six leaves per plant was used for quantification. At least six plants per genotype were analyzed, and the experiments were repeated twice. Statistical analysis was performed using GraphPad Prism 9. T test or ANOVA analysis was carried out to identify statistical significance among datasets.

[3] = test system: Nicotiana benthamiana WT plants; test: IR thermography of leaf temperature, N. benthamiana; format: in vivo; settings: nontransformed leaves, 24 hours after spraying, 50 μM ABA or 100 μM iSB07 or iSB09, compared to mock
Description: IR images were taken using a FLIR […] thermocamera 1 day after the treatment (for N. benthamiana) or 2 and 5 days (for S. lycopersicum). Quantification was performed using the FLIR tools software on fully expanded leaves by analyzing 10 sections per leaf. At least six plants per genotype and treatment were analyzed in each experiment. Experiments were repeated twice. The average plant temperature ± SD of all the plants for each treatment and genotype was calculated and used to report the increase in temperature produced by each treatment. Statistical comparisons among genotypes were performed by either pairwise t tests or one-way ANOVA.

[4] = test system: Arabidopsis thaliana CsPYL1^5m plants; test: Drought resistance experiments; format: in vivo; settings: 50 μM
Description: For drought assays under long-day conditions, seeds from WT Col-0 and pAlligator2-35[…] plants were grown in MS medium for 7 days. Then, seedlings were transferred to individual 0.18-liter pots containing equal amount of moisted soil composed of peat, vermiculite, and perlite at 1:0.5:0.5 ratio (v/v). Plants were grown under long-day conditions in a controlled environment growth chamber at 22°C under 16-hour light/8-hour dark photoperiod under well-watered conditions for 3 weeks. Then, watering was withheld for 14 days. […] The first application was performed the same day the watering was withheld, and the second one was performed 7 days later. Watering was restored and survival rate was measured 6 days after […]. Gravimetric analysis of water loss in pots was performed along the experiment. […] Pots were weighted at 7-day intervals. Pictures of the plants were taken at the beginning of the experiment, 26 days after water deprivation and 12 days after […]. Survival rate and foliar leaf area were measured 12 days after […]. For drought experiments, 6 to 10 plants per genotype and treatment were analyzed in each experiment. The experiment was performed twice.

[5] = test system: RAB18/RD29B gene expression; test: RT-qPCR of RAB18/RD29B expression; design: species or system Arabidopsis thaliana; settings: in vivo
Description: RNA was extracted from seedlings using NucleoSpin RNA Plant kit from Machery-Nagel, following the manufacturer’s instructions. Complementary DNA (cDNA) was synthesized from 1 μg of total purified RNA using 30 U of RevertAid Reverse Transcriptase (Thermo Fisher Scientific). Reverse transcription quantitative polymerase chain reaction (RT-qPCR) was performed using PyroTaq EvaGreen qPCR Master Mix 5X from Cultek, which includes EvaGreen Dye and carboxy-X-rhodamine (ROX) as a passive reference dye. The primer pairs used for this analysis were described previously ([42]). qPCR was performed in a QuantStudio 3 (Applied Biosystems). Relative quantification of gene expression data was carried out using the 2^−ΔΔCt or comparative Ct method. Expression levels were normalized using the Ct values obtained for the actin-8 gene. The presence of a single PCR product was further verified by dissociation analysis in all amplifications. The mean and SD of three independent experiments are shown.

[6] = biological target: AtPYL5:ΔNHAB1 (Arabidopsis thaliana, UniProt Q9FLB1); test: Native red electrophoresis of ligand-induced ternary complex
Chain of AtPYL5:ΔNHAB1 (Q9FLB1 whole entry, stated change not applied): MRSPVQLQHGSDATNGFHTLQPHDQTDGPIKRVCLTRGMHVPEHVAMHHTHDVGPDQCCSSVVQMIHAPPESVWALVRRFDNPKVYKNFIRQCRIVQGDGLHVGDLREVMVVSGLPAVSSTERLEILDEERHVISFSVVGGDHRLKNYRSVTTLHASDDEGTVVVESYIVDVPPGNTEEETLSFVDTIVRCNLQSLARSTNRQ
Description: Electrophoresis was performed at a constant current of 25 mA for 150 min at 4°C. Proteins were detected in gel by InstantBlue staining, and band quantification was performed using the ImageJ software. To obtain apparent Kd values, the proportion of ternary complex formed (fraction bound) and the ABA or iSB09 free concentration in each lane were calculated and plotted as represented in Fig. 3 (E and F). Then, the dose-response curves were fitted to the classical Hill equation using the GraphPad Prism software.

T1 sequence (O49686 whole entry): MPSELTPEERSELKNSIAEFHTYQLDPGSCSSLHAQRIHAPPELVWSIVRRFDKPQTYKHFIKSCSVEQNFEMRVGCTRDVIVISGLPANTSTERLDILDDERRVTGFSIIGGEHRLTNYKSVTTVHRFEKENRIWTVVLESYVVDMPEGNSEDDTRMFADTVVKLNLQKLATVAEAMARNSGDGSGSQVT
T1 sequence (P49597 whole entry partner): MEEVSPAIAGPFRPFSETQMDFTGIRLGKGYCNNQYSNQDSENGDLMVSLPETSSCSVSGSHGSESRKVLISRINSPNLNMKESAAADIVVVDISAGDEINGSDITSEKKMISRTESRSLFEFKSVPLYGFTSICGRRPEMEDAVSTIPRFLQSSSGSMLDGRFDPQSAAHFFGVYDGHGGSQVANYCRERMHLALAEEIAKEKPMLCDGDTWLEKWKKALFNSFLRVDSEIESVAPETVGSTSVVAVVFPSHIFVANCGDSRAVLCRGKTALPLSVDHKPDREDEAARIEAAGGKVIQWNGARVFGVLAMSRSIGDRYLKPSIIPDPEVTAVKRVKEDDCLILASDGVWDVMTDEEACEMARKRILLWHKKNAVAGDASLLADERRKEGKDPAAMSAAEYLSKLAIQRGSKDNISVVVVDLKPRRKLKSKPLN

## CCn1c(=O)cc(C)c2cc(CNS(=O)(=O)c3ccccc3)ccc21 [iSB09]
[1]
  IC50: 0.213 µM
[2]
  leaf temperature by thermal imaging: increased leaf temperature
[3]
  leaf temperature by thermal imaging: increased leaf temperature
[4]; CsPYL1^5m plants, long-day conditions
  drought resistance compared to mock-treated plants: markedly enhanced drought resistance
[4]; CsPYL1^5m plants, long-day, 10 days after stopping irrigation
  soil water consumption: 40%
[4]; short-day conditions
  drought resistance compared to mock-treated plants: enhanced resistance to drought
[5]
  RAB18/RD29B up-regulation in CsPYL1^5m plants relative to WT plants: markedly higher
[6]
  Kd: 1.2 µM
